pIC50: −log10 of the molar value.
Legend:
[1] = biological target: Mtb RNAP σ^A holoenzyme (Mycobacterium tuberculosis, UniProt P9WGY7+P9WGY9); assay: Fluorescence-detected RNAP-inhibition assay; assay type: biochemical
[2] = biological target: E. coli RNAP σ^70 holoenzyme (Escherichia coli, UniProt P0A8T7+P0A8V2); assay: Fluorescence-detected RNAP-inhibition assay; assay type: biochemical
[3] = biological target: S. aureus RNAP σ^A holoenzyme (Staphylococcus aureus, UniProt P47768+Q2G0N5); assay: Fluorescence-detected RNAP-inhibition assay; assay type: biochemical; details: Fig. S5
[4] = system: E. coli D21f2tolC; assay type: cell-based, Escherichia coli; details: for cross-resistance of E. coli Lpm-resistant mutants to the compound: chromosomal Lpm-resistant mutants of E. coli D21f2tolC, Fig. 2D; for MICwild-type: wild-type E. coli D21f2tolC, LB broth, 16 h at 37°C, growth inhibited by ≥90%
[5] = system: RNAP clamp; details: interactions with SW1 and opposite face of SW2; ref Chakraborty et al., 2012; cited from earlier work
[6] = biological target: T. thermophilus RNAP σ^A holoenzyme (Thermus thermophilus, UniProt Q8RQE8+Q8RQE9); assay: Fluorescence-detected RNAP-inhibition assay; assay type: biochemical
[7] = system: human RNAP I/II/III; assay: Radiochemical RNAP-inhibition assay with HeLa nuclear extract; assay type: biochemical; details: Fig. S4C
[8] = system: E. coli D21f2tolC; assay: Checkerboard interaction assay; assay type: cell-based, Escherichia coli; details: combination of Lpm and Rif; checkerboard format; Fig. 2F
[9] = biological target: E. coli RNAP σ^70 holoenzyme (Escherichia coli, UniProt P0A8T7+P0A8V2, D284F/E106F); assay: Single-molecule FRET of RNAP clamp conformation; assay type: biochemical; details: 20 μM Lpm; Fig. 4E-F
[10] = system: E. coli strain D21f2tolC; assay: Colony formation on LB-agar plates containing Lpm; assay type: cell-based, Escherichia coli; details: 200 μg/ml ampicillin, 1 mM IPTG, 24-48 h at 37°C
[11] = in vivo; cited from earlier work

Molecule | cross-resistance of E. coli Lpm-resistant mutants to the compound [4] | MICwild-type [4] [µg/mL] | also measured
4"-O-benzyl-Lpm [a1] |  |  | potency in inhibiting Mtb RNAP relative to Lpm [1]: within approximately an order of magnitude of that of Lpm; potency in inhibiting Escherichia coli RNAP relative to Lpm ([2]; Fig. S5): equal to that of Lpm; potency in inhibiting S. aureus RNAP relative to Lpm [3]: within approximately an order of magnitude of that of Lpm
ONC(=Nc1ccccc1)c1cccc(C(F)(F)F)c1 [CBR, CBR703] | Absence of significant cross-resistance | 6.25 | 
C/C=C/C/C=C(\C)C(O)CC/C(C)=C/C=C(\C)C(=O)c1c(O)cc([C@H](C)CC/C=C/NC(=O)OC)oc1=O (some centres unmarked) [Cor, corallopyronin] |  |  | effect on RNAP clamp conformation [5]: trap a closed-clamp state
CCc1c(Cl)c(O)c(Cl)c(O)c1C(=O)O[C@H]1[C@H](O)[C@H](OC)[C@H](OC/C2=C\C=C\C[C@H](O)/C(C)=C/[C@H](CC)[C@@H](O[C@@H]3OC(C)(C)[C@@H](OC(=O)C(C)C)[C@H](O)[C@@H]3O)/C(C)=C/C(C)=C/C[C@@H]([C@@H](C)O)OC2=O)O[C@@H]1C [Lpm, lipiarmycin A3] |  | 1.56 | pIC50 [2]: 5.10; pIC50 [6]: 3.70; ability to inhibit human RNAP I, II, and III [7]: not human RNAP I, II, and III; cross-resistance of E. coli Rif-, GE/PUM-, Sal-, CBR-, and Stl-resistant mutants to Lpm ([4]; E. coli D21f2tolC derivatives, Fig. 2E): Absence of significant cross-resistance; antibacterial interaction of Lpm and Rif when co-administered [8]: additive antibacterial activity; effect on RNAP clamp conformation in solution [9]: traps the open-clamp state; minimal concentration that prevents colony formation by wild-type transformants [10]: 5 µg/mL; systemic bioavailability [11]: no systemic bioavailability
NC(=O)CC[C@@H](C(=O)NC[C@H]1O[C@@H](c2c[nH]c(=O)[nH]c2=O)[C@H](O)[C@@H]1O)N(O)C(=O)CN=C(N)N [PUM, pseudoridimycin] | Absence of significant cross-resistance | 400 | 
CO[C@H]1/C=C/O[C@@]2(C)Oc3c(C)c(O)c4c(O)c(c(/C=N/N5CCN(C)CC5)c(O)c4c3C2=O)NC(=O)/C(C)=C\C=C\[C@H](C)[C@H](O)[C@@H](C)[C@@H](O)[C@@H](C)[C@H](OC(C)=O)[C@@H]1C [Rif, rifampin] | Absence of significant cross-resistance | 0.20 | 
C/C(=C\Cc1ccccc1)CCC(=O)C[C@H]1C[C@H](O)C/C(C)=C/C/C=C/C/C(CC(=O)O)=C\C(=O)O1 [Rip, ripostatin] |  |  | effect on RNAP clamp conformation [5]: trap a closed-clamp state
CNC(=O)[C@@H](C)[C@H]1C(=O)/C(=C(O)/C=C/C(C)=C/[C@@H](C)[C@H]2O[C@@]3(C)O[C@H](C=C[C@@]34CO4)[C@@H]2C)C(=O)N1[C@@H]1CC[C@H](O)[C@H](C)O1 [Stl, streptolydigin] | Absence of significant cross-resistance | 3.13 | 
GE23077 | Absence of significant cross-resistance | 500 | 
myxopyronin | Absence of significant cross-resistance | 0.20 | effect on RNAP clamp conformation [5]: trap a closed-clamp state
salinamide | Absence of significant cross-resistance | 0.049 | 

From article PMC6205224 (Molecular cell, 2018)
